From ChEMBL document CHEMBL1201862, “PubChem BioAssay data set” (2004)
The source made the active and inactive calls.

How the values were obtained:
[1] = target: Eukaryotic translation initiation factor 4E (Mus musculus, UniProt P63073); assay: blockers of eIF4G binding by eIF4E – biochemical, TR-FRET, dose response (AID 855); assay type: functional;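 further: potency for disrupting eIF4E binding to eIF4GI seen as loss of FRET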
Troponin, cardiac muscle = Troponin, cardiac muscle (Homo sapiens, UniProt P19429+P45379+P63316); assay: Fluorescence-based biochemical high throughput dose response assay for activators of the calcium sensitivity of cardiac Regulated Thin Filaments (RTF). [Related pubchem assays (depositor defined):AID493008, AID493018, AID504382, AID504383]; assay type: protein-complex assay
HEK293 [2] = assay: inhibition of NOD1-driven NF-kB reporter – cell-based, luminescence, uHTS, primary screen (AID 1578); assay type: functional; conditions: Homo sapiens
[3] = target: Nucleotide-binding oligomerization domain-containing protein 2 (Homo sapiens, UniProt Q9HC29); assay: inhibition of NOD2-driven NF-kB reporter – cell-based, luminescence, uHTS, HEK293 (AID 1566); assay type: functional
HEK293 [4] = assay: cells; assay type: functional, cell-based; conditions: Homo sapiens
HEK293 [5] = assay: cells; assay type: functional, cell-based; conditions: Homo sapiens; remark: listed apart in the source
HEK293 [6] = assay: cells; assay type: functional, cell-based; conditions: Homo sapiens; remark: listed apart in the source
HEK293 [7] = assay: NOD2 signaling inhibitors in MDP-stimulated cells, cell-based, uHTS, luminescence (AID 2001); assay type: functional; conditions: Homo sapiens
Coagulation factor XII = target: T1, Coagulation factor XII (Homo sapiens, UniProt P00748); assay type: functional;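 further: activated factor XIIa alpha cleaving a fluorogenic AMC peptide substrate; inhibitor potency from loss of enzyme activity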
T1 sequence (P00748 whole entry): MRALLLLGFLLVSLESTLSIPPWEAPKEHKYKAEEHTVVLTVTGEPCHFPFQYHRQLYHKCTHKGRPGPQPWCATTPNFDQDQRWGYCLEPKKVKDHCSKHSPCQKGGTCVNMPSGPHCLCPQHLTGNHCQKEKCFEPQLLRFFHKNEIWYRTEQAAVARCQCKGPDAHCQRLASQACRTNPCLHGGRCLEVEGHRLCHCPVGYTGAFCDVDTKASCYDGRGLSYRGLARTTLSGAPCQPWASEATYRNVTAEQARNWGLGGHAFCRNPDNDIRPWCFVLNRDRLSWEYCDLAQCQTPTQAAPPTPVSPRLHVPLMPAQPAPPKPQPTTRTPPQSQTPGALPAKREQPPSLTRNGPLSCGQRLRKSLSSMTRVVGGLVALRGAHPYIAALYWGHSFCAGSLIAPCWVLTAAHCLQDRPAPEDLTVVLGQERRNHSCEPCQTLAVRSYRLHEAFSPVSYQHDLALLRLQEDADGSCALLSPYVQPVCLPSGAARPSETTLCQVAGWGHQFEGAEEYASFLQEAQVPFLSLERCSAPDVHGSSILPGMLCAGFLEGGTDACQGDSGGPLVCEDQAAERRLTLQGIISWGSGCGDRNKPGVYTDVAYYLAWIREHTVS

[8] = M. tuberculosis H37Rv growth inhibitors, H37Rv strain (AID 1626); assay type: functional
[9] = A cytotoxicity screen of small molecule inhibitors of the PhoP region in Salmonella typhi identified in the primary screen. [Related pubchem assays: 1850, 1864, 1985 ]; assay type: functional
[10] = blockade of melanocortin 4 receptor signaling – cell-based, plate reader, cherry pick, counter-screen for LGR2 antagonist project, dose response (AID 743444); assay type: functional;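 further: transfected HEK 293 cells stimulated with alpha-MSH peptide; potency of inhibitors of the alpha-MSH evoked signal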
cells = assay type: functional
[11] = blockers of bursicon-stimulated LGR2 cAMP reporter – cell-based, HEK293, CRE-luciferase reporter, cherry pick, set 2, dose response (AID 743343); assay type: functional;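 further: transfected cells were stimulated with diluted bursicon conditioned medium after compound addition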
Protein RecA = target: T2, Protein RecA (Mycobacterium tuberculosis, UniProt P9WHJ3); assay: Fluorescence Cell-Free Homogeneous Dose Retest to Identify Inhibitors of RecA-Intein Splicing Activity. [Related pubchem assays (depositor defined):AID2097, AID2223, AID489010, AID492950]; assay type: functional
T2 sequence (P9WHJ3 whole entry): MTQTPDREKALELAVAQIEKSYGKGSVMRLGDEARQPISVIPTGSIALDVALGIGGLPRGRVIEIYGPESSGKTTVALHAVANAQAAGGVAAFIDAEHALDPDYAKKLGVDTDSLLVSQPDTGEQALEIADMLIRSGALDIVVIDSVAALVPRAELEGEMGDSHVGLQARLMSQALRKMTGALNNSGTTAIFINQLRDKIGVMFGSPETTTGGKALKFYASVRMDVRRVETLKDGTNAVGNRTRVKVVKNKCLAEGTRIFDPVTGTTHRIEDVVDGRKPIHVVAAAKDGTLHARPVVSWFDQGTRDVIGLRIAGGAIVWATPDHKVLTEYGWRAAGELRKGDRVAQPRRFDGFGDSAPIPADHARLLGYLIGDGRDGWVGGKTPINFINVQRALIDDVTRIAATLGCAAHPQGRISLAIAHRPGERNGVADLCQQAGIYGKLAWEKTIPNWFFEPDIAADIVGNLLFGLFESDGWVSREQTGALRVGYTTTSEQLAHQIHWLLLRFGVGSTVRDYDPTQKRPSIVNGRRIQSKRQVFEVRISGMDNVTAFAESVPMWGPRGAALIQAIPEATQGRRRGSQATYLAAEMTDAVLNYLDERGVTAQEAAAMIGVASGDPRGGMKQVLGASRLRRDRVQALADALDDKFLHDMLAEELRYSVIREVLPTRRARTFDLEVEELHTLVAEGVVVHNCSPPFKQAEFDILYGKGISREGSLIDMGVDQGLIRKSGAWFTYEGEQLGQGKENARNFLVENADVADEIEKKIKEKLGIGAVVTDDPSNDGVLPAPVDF

[12] = target: T3, Replicative DNA helicase DnaB (Mycobacterium tuberculosis, UniProt P9WMR3); assay: DnaB intein splicing inhibitors, dose response, biochemical, cell-free fluorescence (AID 449749); assay type: functional
T3 sequence (P9WMR3 whole entry): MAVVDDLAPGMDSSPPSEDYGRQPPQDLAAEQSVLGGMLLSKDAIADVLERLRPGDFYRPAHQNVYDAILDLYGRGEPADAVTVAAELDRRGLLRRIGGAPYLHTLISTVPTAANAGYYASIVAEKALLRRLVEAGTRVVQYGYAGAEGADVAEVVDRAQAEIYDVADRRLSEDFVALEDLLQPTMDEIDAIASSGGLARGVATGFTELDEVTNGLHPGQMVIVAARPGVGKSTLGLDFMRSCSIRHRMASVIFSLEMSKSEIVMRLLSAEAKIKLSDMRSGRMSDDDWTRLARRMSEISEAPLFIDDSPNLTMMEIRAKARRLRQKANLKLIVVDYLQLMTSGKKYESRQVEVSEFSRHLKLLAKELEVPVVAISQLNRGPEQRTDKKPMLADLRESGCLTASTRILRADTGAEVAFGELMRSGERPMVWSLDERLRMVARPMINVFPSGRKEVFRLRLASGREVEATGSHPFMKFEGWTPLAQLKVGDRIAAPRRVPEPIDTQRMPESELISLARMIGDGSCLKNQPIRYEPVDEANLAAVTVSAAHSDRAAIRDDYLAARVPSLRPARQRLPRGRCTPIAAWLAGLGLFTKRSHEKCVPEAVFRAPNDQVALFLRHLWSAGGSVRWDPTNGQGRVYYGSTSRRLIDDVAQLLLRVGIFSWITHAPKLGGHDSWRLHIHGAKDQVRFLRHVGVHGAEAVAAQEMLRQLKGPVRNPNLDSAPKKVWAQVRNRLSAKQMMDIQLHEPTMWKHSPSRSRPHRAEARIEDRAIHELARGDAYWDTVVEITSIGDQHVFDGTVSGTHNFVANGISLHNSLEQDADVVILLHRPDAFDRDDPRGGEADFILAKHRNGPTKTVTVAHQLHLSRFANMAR

## O=C1c2ccccc2C(O)N1Cc1ccccc1Cl (stereo not given)
[1]
  IC50: > 64 µM (inactive)

## CC(C)CNC(=S)NC(=O)c1ccccc1Cl
Troponin, cardiac muscle
  EC50: > 71.4 µM (inactive)

## CCCCn1c(SCC(=O)N2CCN(c3ccccc3)CC2)nc2ccsc2c1=O
HEK293 [2]
  EC50: 9.68 µM (active)
[3]
  EC50: 4.06 µM (active)
HEK293 [4]
  IC50: > 20 µM (inactive)
HEK293 [5]
  IC50: > 20 µM (inactive)
HEK293 [6]
  IC50: 11.5 µM (active)
HEK293 [7]
  IC50: 8.34 µM (active)

## CN1CCN(C2=CC(=O)OC23CCCCC3)CC1
[1]
  IC50: > 64 µM (inactive)

## N#Cc1c2n(c3c(=O)n(Cc4ccccc4)cnc13)CCCC2
Coagulation factor XII
  IC50: > 50 µM (inactive)

## O=C(COc1ccc2ccccc2c1)Nc1nccs1
[8]
  IC50: > 100 µM (active)
[9]
  EC50: > 50 µM (active)
[10]
  AC50: 18 µM (active)
cells
  IC50: 22.3 µM (active)
[11]
  AC50: 7.4 µM (active)

## COC(=O)c1ccc(S(=O)(=O)N2CCC(O)CC2)n1C
Troponin, cardiac muscle
  EC50: > 71.4 µM (inactive)

## O=C(Nc1cccnc1)c1c(O)c2c(n(Cc3ccccc3)c1=O)CCCC2
[1]
  IC50: > 64 µM (inactive)

## O=C(c1[nH]ncc1-c1ccc(Cl)cc1)C1CO1 (stereo not given)
Protein RecA
  EC50: 20.9 µM (active)
[3]
  EC50: > 20 µM (inactive)
[12]
  AC50: 31.7 µM (active)

## O=C(c1n[nH]cc1-c1ccc(Cl)cc1)C1CO1 (stereo not given)
HEK293 [2]
  EC50: 19.3 µM (active)
HEK293 [4]
  IC50: > 20 µM (inactive)
HEK293 [5]
  IC50: > 20 µM (inactive)
HEK293 [6]
  IC50: 4.08 µM (active)
HEK293 [7]
  IC50: 5.72 µM (inactive)
